Experimental data from patent US20240277637A1, “CAPSAICIN DERIVATIVES IN THE TREATMENT OF IDIOPATHIC PULMONARY FIBROSIS” (aXichem AB, priority 2021, published 2024).
pIC50: −log10 of the molar value.

How the values were obtained:
[1] = test system: human corneal epithelial cells; assay: Proliferation assay, PDGF-stimulated corneal epithelial proliferation (Example 1); format: cell-based; details: for pIC50: Homo sapiens, Corneal epithelial cell, 10 ng/ml PDGF, 72 hours
Experimental: (§1) Primary isolated human corneal epithelial cells; Normal, Human cells (ATCC® PCS-700-010™) were maintained in culture at 37° C. with 5% CO2 and 95% humidity in serum reduced (5% fetal calf serum) modified promocell media (MPM) supplemented with 4 ng/ml fibronectin (FN), 2 ng/ml human recombinant vascular endothelial growth factor (VEGF) and 4 ng/ml basic fibroblast growth factor (bFGF).
(§2) Corneal cells were harvested by trypsinization at 37° C. and neutralized with trypsin-neutralizing solution. A suspension of 50,000 cells in MPM/DMEM was added to 25 ml flasks. The cells were incubated with phenylcapsaicin or SU9518 for 1 hour in cytokine-free medium at standard conditions and incubated for another 72 hours in the presence of final mediums (either with 10 ng/ml PDGF-AB+4 ng/ml FN, or with 2 ng/ml VEGF+4 ng/ml bFGF+4 ng/ml FN). The cells were then dispersed in trypsin, resuspended, and counted in a coulter counter.

[2] = test system: human bronchial epithelial cells; assay: Proliferation assay, PDGF-stimulated bronchial epithelial proliferation (Example 2); format: cell-based; details: for pIC50: Homo sapiens, Epithelial cell, 10 ng/ml PDGF, 72 hours
Experimental: (§3) Primary isolated human bronchial epithelial cells (NHBE) (Normal, Human (ATCC® BEAS-2B™)) were cultured up to passage 6. […].
as §2, with “Bronchial” for “Corneal”, “trypsinisation” for “trypsinization”, “neutralised” for “neutralized”, “trypsin-neutralising” for “trypsin-neutralizing”

[3] = test system: human corneal epithelial cells; assay: Proliferation assay, VEGF+bFGF-stimulated corneal epithelial proliferation (Example 1); format: cell-based; details: Corneal epithelial cell, highest dose tested 10 uM, 72 hours, read-out: IC50, VEGF+bFGF-induced proliferation
Experimental: as §1, §2

[4] = test system: human bronchial epithelial cells; assay: Proliferation assay, VEGF+bFGF-stimulated bronchial epithelial proliferation (Example 2); format: cell-based; details: 72 hours
Experimental: as §3
as §2, with “Bronchial” for “Corneal”, “trypsinisation” for “trypsinization”, “neutralised” for “neutralized”, “trypsin-neutralising” for “trypsin-neutralizing”

[5] = test system: human bronchial epithelial cells; assay: Clonogenic cell survival assay, bronchial epithelial cells with PDGF-AB (Example 2); format: cell-based
Experimental: as §3
A clonogenic cell survival assay determines the ability of a cell to proliferate indefinitely. The effects of phenylcapsaicin on clonogenic survival of bronchial epithelial cells was investigated by plating the cells with increasing numbers (10^2 to 5×10^4) in 25 cm^2 flasks. SU9518, a known inhibitor for PDGF which has shown the ability to reduce radiation-induced fibroblast and endothelial cell activation, was used as the positive control. The cells were incubated with 0-10 μM of phenylcapsaicin and SU9518 separately in the presence of 10 ng/ml PDGF-AB. The flasks were returned to the incubator for 14 days, after which they were stained with crystal violet. The colonies were counted, and the surviving percentage was determined for clonogenic survival after correcting for plating efficiency.

[6] = Acute inhalation toxicity test on rats; details: both sexes, rat, in vivo, inhaled; single exposure via inhalation, nose-only; male and female rats; based on active substance
From the text: These findings strongly imply that phenylcapsaicin may be a useful drug against IPF, slowing down or reducing scarring of the lung tissue. Such a reduction in scarring may lead to a delayed progression of IPF and/or ease the symptoms of IPF, such as respiratory difficulty and/or coughing. […] This finding is an indication that the compounds of the invention will have a low toxicity in use against IPF using inhalation as the route of administration.

[7] = test system: human corneal epithelial cells; assay: Clonogenic cell survival assay, corneal epithelial cells with PDGF-AB (Example 1); format: cell-based; details: 10 ng/ml PDGF-AB, 14 days
Experimental: as §1
A clonogenic cell survival assay determines the ability of a cell to proliferate indefinitely. The effects of phenylcapsaicin (2) on clonogenic survival of corneal epithelial cells was investigated by plating the cells with increasing numbers (102 to 5×104) in 25 cm^2 flasks. SU9518, a known inhibitor PDGF that has shown the ability to reduce radiation-induced fibroblast and endothelial cell activation, was used as the positive control. The cells were incubated with 0-10 μM of phenylcapsaicin and SU9518 separately in the presence of 10 ng/ml PDGF-AB. The flasks were returned to the incubator for 14 days, after which they were stained with crystal violet. The colonies were counted, and the surviving

[8] = test system: human bronchial epithelial cells; assay: Clonogenic cell survival assay, bronchial epithelial cells with PDGF-AB (Example 3); format: cell-based; details: 10 ng/ml PDGF-AB, 14 days
Experimental: Primary isolated human bronchial epithelial cells (NHBE) were used in this assay sourced from the American Tissue Culture Collection (Normal, Human (ATCC® BEAS-2B™)) and were cultured up to passage 6. […].
A clonogenic cell survival assay determines the ability of a cell to proliferate indefinitely. Cells were plated with increasing numbers (102 to 5×10^4) in 25 cm^2 flasks. SU9518, SU9518, a known inhibitor PDGF that has shown the ability to reduce radiation-induced fibroblast and endothelial cell activation, and phenylcapsaicin were used as positive controls. The cells were incubated with 0-10 μM (3% DMSO aqueous) of phenylcapsaicin, SU9518, and compounds 1 and 3-7 separately in the presence of 10 ng/ml PDGF-AB (Sigma Aldrich). The flasks were returned to the incubator for 14 days, after which they were stained with crystal violet (Sigma Aldrich). The colonies were counted and the surviving percentage was determined for clonogenic survival after correcting for plating efficiency.

[9] = read-out: IC50, PDGF-induced epithelial proliferation
[10] = read-out: IC50, PDGF-induced proliferation

COc1cc(CNC(=O)CCCCC#Cc2ccccc2)ccc1O [Compound 2, N-(4-hydroxy-3-methoxybenzyl)-7-phenylhept-6-ynamide]
pIC50 [1, 9]: ~6.00 | pIC50 [1, 10]: ~6.00 | selectivity for PDGF pathway ([1]; PDGF- versus VEGF+bFGF-induced proliferation, corneal cells): work selectively on the PDGF pathway | pIC50 [2, 9]: ~6.00 | pIC50 [2, 10]: ~5.70 | selectivity for PDGF pathway ([2]; PDGF- versus VEGF+bFGF-induced proliferation, bronchial cells): work selectively on the PDGF pathway, although at a lower selectivity than in corneal cells | pIC50 [3]: < 5.00 | IC75, epithelial proliferation stimulated by VEGF and bFGF [4]: ~5000 nM | pIC50 ([4]; Homo sapiens, Epithelial cell, highest dose tested 10 uM, read-out: IC50, VEGF+bFGF-induced proliferation): < 5.00 | effect on clonogenic survival ([5]; 0-10 μM, 10 ng/ml PDGF-AB, 14 days): dose-dependent inhibitory effect on survival | surviving fraction of epithelial cells ([5]; 5 μM, 10 ng/ml PDGF-AB, 14 days): 35% | survival rate of the cells ([5]; 10 μM, after 14 days, in the presence of PDGF): 35% | LC50 [6]: > 5.65 µg/mL | effect on clonogenic survival ([7]; 0-10 μM): dose-dependant inhibitory effect on survival | surviving fraction of epithelial cells ([7]; 5 μM): 27% | effect on clonogenic survival / PDGF inhibition (words) ([8]; 0-10 μM): reduction in the survival fraction of endothelial cells in a dose dependent manner | Clonogenic Survival Assay (percent) ([8]; 0.10 μM): 83% | Clonogenic Survival Assay (percent) ([8]; 0.10 μM, listed as phenylcapsaicin): 83% | Clonogenic Survival Assay (percent) ([8]; 0.50 μM): 59% | Clonogenic Survival Assay (percent) ([8]; 1.00 μM): 41% | Clonogenic Survival Assay (percent) ([8]; 2.00 μM): 35% | Clonogenic Survival Assay (percent) ([8]; 5.00 μM): 35% | Clonogenic Survival Assay (percent) ([8]; 10.00 μM): 32% | Clonogenic Survival Assay (percent) ([8]; 10.00 μM, listed as phenylcapsaicin): 32%
